Data published in US10512634B2, “Benzimidazole derivates useful as inhibitors of mammalian histone deacetylase activity” (KANCERA AB, priority 2015, dated 2019).
Read-outs that look alike come from different tables or passages of the source.

How the values were obtained:
HDAC6 = HDAC6 (Homo sapiens (Human), UniProt Q9UBN7); test: HDAC in vitro enzymatic assay (fluorescence); assay type: biochemical
Method: Biological Tests Method for Measurement of Enzymatic Activity of HDACs Materials & Methods
All Examples were tested in HDAC1, 2, 3, 6 and 8 in vitro enzymatic assays. The assay principle is well known (Hauser et al. 2009, Bradner et al. 2010) and all necessary reagents like enzymes, substrates, developer and reference compounds are commercially available (see e.g. BPS Biosciences http://www.bpsbioscience.com/). A series of dilutions of the compounds were prepared with a top concentration of 200 μM (2 μM for HDAC6). The enzymatic reactions were conducted in a mixture containing assay buffer, bovine serum albumin, HDAC substrate, and a test compound. After enzymatic reaction, developer was added and after an additional incubation time, fluorescence intensity was measured at an excitation wavelength of 360 nm and an emission wavelength of 460 nm. A selection of the Examples were tested in a full HDAC panel containing HDAC1, 2, 3, 4, 5, 6, 7, 8, 9, 10 and 11 in vitro enzymatic assays. The tests were performed as above except that a series of dilutions of the compounds were prepared with a top concentration of 10 μM for all HDACs.

HDAC1 = HDAC1 (Homo sapiens (Human), UniProt Q13547); test: HDAC in vitro enzymatic assay (fluorescence); settings: read-out: IC50 HDAC 1; full HDAC panel; top concentration 10 μM
HDAC2 = HDAC2 (Homo sapiens (Human), UniProt Q92769); test: HDAC in vitro enzymatic assay (fluorescence); settings: read-out: IC50 HDAC2; full HDAC panel; top concentration 10 μM
HDAC3 = HDAC3 (Homo sapiens (Human), UniProt O15379); test: HDAC in vitro enzymatic assay (fluorescence); settings: read-out: IC50 HDAC3; full HDAC panel; top concentration 10 μM
HDAC8 = HDAC8 (Homo sapiens (Human), UniProt Q9BY41); test: HDAC in vitro enzymatic assay (fluorescence); settings: read-out: IC50 HDAC8; full HDAC panel; top concentration 10 μM
HDAC4 = HDAC4 (Homo sapiens (Human), UniProt P56524); test: HDAC in vitro enzymatic assay (full HDAC panel); settings: read-out: IC50 HDAC4, top concentration 10 μM
HDAC5 = HDAC5 (Homo sapiens (Human), UniProt Q9UQL6); test: HDAC in vitro enzymatic assay (full HDAC panel); settings: read-out: IC50 HDAC5, top concentration 10 μM
HDAC7 = HDAC7 (Homo sapiens (Human), UniProt Q8WUI4); test: HDAC in vitro enzymatic assay (full HDAC panel); settings: read-out: IC50 HDAC7, top concentration 10 μM
HDAC9 = HDAC9 (Homo sapiens (Human), UniProt Q9UKV0); test: HDAC in vitro enzymatic assay (full HDAC panel); settings: read-out: IC50 HDAC9, top concentration 10 μM
HDAC10 = HDAC10 (Homo sapiens (Human), UniProt Q969S8); test: HDAC in vitro enzymatic assay (full HDAC panel); settings: read-out: IC50 HDAC10, top concentration 10 μM
HDAC11 = HDAC11 (Homo sapiens (Human), UniProt Q96DB2); test: HDAC in vitro enzymatic assay (full HDAC panel); settings: read-out: IC50 HDAC11, top concentration 10 μM
Chain of HDAC11 (Q96DB2 whole entry): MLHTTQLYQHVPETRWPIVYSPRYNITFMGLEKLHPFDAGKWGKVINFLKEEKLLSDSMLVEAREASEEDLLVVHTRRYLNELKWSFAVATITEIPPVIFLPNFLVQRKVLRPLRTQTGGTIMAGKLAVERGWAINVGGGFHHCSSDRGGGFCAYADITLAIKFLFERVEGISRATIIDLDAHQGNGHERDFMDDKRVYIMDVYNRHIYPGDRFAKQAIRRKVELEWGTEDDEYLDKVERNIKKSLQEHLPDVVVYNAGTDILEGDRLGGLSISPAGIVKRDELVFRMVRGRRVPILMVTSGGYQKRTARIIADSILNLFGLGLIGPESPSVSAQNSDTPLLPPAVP

Chain of HDAC7 (Q8WUI4 whole entry): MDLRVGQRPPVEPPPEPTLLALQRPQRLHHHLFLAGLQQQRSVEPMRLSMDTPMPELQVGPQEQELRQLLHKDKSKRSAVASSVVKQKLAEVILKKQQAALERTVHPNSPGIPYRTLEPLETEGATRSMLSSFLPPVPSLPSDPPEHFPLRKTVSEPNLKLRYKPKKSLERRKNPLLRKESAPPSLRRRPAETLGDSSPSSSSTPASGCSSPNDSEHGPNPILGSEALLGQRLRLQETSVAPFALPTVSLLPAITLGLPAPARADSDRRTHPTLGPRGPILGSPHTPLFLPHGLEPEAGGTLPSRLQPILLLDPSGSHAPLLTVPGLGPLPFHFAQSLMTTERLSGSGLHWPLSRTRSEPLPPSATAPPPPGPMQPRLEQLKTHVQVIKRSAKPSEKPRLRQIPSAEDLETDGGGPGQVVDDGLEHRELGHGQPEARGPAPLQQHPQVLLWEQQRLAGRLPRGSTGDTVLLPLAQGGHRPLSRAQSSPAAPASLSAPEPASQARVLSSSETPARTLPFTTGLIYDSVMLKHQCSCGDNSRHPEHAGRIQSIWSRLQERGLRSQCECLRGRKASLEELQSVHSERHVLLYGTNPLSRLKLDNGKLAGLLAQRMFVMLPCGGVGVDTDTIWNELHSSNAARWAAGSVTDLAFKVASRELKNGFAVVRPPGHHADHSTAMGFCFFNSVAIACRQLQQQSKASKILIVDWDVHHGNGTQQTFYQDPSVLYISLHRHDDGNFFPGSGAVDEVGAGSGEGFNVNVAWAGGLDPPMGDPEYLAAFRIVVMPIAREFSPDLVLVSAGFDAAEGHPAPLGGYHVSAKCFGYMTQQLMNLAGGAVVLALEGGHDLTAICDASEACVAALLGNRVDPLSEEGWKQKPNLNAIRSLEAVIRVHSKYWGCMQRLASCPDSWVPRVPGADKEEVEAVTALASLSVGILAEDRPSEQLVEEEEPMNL
Chain of HDAC8 (Q9BY41 whole entry): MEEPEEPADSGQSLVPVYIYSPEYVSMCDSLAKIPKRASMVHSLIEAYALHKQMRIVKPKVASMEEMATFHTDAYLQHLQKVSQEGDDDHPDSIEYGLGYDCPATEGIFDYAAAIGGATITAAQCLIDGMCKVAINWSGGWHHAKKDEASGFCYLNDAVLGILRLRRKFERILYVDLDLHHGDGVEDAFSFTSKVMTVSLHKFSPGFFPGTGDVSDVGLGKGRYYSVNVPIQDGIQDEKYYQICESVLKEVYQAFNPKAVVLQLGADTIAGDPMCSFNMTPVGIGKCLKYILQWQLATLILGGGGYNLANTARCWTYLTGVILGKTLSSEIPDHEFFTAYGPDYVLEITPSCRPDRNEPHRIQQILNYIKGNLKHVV
Chain of HDAC1 (Q13547 whole entry): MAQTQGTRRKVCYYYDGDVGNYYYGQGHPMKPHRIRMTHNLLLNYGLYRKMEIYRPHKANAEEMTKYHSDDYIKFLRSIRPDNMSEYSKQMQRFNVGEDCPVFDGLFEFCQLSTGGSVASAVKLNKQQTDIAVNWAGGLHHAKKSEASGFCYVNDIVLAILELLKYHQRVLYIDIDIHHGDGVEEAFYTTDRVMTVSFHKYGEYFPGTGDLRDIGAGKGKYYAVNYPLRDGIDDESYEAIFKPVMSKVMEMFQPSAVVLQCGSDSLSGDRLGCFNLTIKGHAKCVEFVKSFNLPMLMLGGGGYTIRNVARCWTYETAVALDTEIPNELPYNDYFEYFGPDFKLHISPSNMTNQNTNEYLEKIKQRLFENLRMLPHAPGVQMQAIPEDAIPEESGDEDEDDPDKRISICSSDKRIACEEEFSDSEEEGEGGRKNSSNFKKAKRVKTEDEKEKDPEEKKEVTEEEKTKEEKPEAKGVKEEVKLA
Chain of HDAC3 (O15379 whole entry): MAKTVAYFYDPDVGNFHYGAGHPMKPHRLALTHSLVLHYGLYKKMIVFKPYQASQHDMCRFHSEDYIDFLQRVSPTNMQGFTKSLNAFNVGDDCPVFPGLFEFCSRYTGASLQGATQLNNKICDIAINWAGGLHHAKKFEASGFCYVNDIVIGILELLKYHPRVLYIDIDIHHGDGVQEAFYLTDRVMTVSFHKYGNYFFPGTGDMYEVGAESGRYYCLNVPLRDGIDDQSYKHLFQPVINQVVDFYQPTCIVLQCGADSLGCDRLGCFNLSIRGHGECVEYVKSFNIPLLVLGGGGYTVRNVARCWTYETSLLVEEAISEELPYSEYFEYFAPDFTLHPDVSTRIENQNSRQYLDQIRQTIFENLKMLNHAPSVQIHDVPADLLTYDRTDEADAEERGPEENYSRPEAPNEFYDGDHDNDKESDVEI
Chain of HDAC3 (Q9Y618 395-489 partner): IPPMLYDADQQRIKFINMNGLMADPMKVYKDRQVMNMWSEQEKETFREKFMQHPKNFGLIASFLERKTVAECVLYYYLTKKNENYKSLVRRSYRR
Chain of HDAC10 (Q969S8 whole entry): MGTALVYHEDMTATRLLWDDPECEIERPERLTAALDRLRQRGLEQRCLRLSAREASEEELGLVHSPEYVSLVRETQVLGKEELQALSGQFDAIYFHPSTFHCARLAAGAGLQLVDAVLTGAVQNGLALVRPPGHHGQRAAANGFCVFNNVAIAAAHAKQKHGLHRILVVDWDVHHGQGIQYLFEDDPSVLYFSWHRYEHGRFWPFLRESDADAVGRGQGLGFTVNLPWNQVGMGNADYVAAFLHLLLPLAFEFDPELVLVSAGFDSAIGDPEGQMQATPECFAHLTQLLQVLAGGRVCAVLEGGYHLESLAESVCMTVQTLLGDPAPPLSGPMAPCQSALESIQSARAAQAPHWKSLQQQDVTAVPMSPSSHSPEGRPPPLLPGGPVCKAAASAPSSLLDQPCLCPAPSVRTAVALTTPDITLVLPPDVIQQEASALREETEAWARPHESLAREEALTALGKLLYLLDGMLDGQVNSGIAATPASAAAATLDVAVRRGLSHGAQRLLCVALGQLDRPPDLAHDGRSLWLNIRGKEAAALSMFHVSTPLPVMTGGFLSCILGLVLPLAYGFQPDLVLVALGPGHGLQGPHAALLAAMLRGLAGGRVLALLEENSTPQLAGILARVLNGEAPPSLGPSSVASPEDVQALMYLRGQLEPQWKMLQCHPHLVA
Chain of HDAC9 (Q9UKV0 whole entry): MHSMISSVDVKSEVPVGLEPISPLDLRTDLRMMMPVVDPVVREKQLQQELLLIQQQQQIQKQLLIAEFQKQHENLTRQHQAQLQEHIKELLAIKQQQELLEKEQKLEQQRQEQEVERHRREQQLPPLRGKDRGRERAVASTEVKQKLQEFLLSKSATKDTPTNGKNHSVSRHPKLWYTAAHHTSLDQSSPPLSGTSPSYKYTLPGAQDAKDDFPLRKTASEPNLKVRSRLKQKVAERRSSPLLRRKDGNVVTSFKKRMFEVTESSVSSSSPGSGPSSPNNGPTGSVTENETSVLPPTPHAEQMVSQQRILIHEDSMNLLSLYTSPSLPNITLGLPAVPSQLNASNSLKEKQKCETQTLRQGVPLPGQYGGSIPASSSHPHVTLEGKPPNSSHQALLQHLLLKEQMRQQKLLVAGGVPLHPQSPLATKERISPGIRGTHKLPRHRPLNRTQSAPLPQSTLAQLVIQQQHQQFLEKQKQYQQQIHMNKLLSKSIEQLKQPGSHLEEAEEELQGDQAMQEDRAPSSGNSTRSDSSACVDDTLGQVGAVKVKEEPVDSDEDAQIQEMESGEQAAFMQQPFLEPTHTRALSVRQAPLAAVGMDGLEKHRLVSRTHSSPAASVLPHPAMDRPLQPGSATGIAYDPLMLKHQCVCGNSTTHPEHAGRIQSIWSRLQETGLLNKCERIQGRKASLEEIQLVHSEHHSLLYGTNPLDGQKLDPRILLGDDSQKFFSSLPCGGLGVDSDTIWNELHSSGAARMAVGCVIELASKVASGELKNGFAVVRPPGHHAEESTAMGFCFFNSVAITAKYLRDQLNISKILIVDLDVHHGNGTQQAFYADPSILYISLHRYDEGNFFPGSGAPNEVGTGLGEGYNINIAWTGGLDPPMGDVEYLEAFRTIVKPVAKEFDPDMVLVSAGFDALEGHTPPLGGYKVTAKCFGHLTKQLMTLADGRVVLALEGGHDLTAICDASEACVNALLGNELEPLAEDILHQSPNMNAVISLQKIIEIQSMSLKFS
Chain of HDAC2 (Q92769 whole entry): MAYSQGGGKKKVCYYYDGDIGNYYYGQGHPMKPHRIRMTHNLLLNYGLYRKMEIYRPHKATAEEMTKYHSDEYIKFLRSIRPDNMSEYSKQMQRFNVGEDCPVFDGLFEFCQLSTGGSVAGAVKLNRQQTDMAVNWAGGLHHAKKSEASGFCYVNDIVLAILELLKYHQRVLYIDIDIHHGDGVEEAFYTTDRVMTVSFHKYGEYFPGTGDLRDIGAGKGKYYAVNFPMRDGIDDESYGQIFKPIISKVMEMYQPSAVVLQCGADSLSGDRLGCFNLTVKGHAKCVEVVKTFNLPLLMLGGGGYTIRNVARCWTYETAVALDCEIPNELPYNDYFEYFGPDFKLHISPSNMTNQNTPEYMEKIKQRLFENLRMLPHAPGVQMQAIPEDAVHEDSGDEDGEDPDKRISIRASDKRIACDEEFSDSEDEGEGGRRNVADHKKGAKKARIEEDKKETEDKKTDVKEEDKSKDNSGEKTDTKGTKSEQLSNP

## O=C(NO)c1ccc2nc(-c3ccccc3C(F)(F)F)[nH]c2c1 [Example 18, N-hydroxy-2-[2-(trifluoromethyl)phenyl]-1H-benzimidazole-6-carboxamide]
HDAC6; full HDAC panel, top concentration 10 μM, read-out: IC50 HDAC6
  IC50: 0.077 µM
HDAC6; top concentration 2 μM, read-out: IC50 values for inhibition of HDAC6
  IC50: 0.077 µM
HDAC1
  IC50: > 10 µM
HDAC2
  IC50: > 10 µM
HDAC3
  IC50: 3 µM
HDAC8
  IC50: > 10 µM
HDAC4
  IC50: > 10 µM
HDAC5
  IC50: > 10 µM
HDAC7
  IC50: 9.2 µM
HDAC9
  IC50: > 10 µM
HDAC10
  IC50: 8.6 µM
HDAC11
  IC50: > 10 µM
